The numbers were not newly measured in patent US20250122197A1, “PROCESS FOR […] ISOLATING ATROPISOMERS OF 7-CHLORO-6-FLUORO-1-(2-ISOPROPYL-4-METHYLPYRIDIN-3-YL)PYRIDO[2,3-D]PYRIMIDINE-2,4(1H,3H)-DIONE” (AMGEN INC., priority 2020, published 2025), which cites them from elsewhere.

The structures appear in SMILES notation.

For series [1], the system named is phosphorylation of extracellular signal-regulated kinase (ERK). The note with it: preclinical studies, Canon et al. Nature 2019.
The subject of a further series is KRAS p.G12C tumors. The note with it: mice bearing KRAS p.G12C tumors, Canon et al. Nature 2019.

As to `C=CC(=O)N1CCN(c2nc(=O)n(-c3c(C)ccnc3C(C)C)c3nc(-c4c(O)cccc4F)c(F)cc23)[C@@H](C)C1` [AMG 510], in series [1], the “Inhibition of ERK phosphorylation” value is on record as “inhibited nearly all detectable phosphorylation”. Moreover, the Tumor regression entry in the series with KRAS p.G12C tumors is “durable complete tumor regression”.
